Experimental data as given in patent publication US10669272B2, “Substituted naphthyridinone compounds useful as T cell activators” (BRISTOL-MYERS SQUIBB COMPANY, priority 2018, dated 2020).
Where two headings read alike, the source gives them in different places.

Legend:
Human venous whole blood = experiment: Human whole blood IFN-γ assay; type: cell-based; details: human whole blood, read-out: INFg Whole Blood Normalized Agonist EC50;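 further: blood from healthy donors exposed to compound for 1 h before stimulation with anti-CD3 and anti-CD28 at 1 µg/mL each, IFN-γ quantified in supernatant by AlphaLISA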
human DGKα = molecular target: T1, human DGKα (Homo sapiens, UniProt P23743); experiment: DGKα LIPGLO assay (extruded liposome substrate), in vitro DGK inhibition; type: biochemical; details: read-out: DGKa LIPGLO IC50
T1 construct: TVMV protease cleavage site (C); Hexa-His (C); made in house; host or cells: Sf9 insect cells (baculovirus, Bac-to-Bac)
T1 sequence (P23743 with tags, fused parts or gaps): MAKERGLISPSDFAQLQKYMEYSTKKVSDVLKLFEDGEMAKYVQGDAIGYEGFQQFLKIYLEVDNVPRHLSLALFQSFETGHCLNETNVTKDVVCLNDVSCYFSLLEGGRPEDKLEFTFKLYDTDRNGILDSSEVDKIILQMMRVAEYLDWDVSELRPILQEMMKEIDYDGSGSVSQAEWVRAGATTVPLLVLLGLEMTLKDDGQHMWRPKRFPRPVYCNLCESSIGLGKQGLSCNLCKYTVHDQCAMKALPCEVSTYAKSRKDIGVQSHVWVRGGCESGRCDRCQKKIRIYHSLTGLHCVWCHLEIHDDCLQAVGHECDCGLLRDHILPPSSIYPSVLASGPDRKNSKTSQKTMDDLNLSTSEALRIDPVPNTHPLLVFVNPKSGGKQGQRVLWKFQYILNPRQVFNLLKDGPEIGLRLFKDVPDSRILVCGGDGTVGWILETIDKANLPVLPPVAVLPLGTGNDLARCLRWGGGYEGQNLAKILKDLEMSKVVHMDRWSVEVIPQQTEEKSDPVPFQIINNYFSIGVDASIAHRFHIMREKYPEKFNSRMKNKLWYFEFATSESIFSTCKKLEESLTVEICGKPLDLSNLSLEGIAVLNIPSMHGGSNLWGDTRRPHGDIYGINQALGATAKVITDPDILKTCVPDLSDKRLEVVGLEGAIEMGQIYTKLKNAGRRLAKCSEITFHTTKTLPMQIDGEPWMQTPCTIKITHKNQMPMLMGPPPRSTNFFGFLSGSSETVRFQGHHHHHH

naïve human CD8 T cells = experiment: Human CD8 T cells IFN-γ assay; type: cell-based; details: read-out: HuCD8 INFG Normalized EC50;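 further: Naïve human CD8 T cells stimulated with plate-bound anti-CD3 and soluble anti-CD28, IFN-γ in supernatant quantified by AlphaLISA and converted to pg/mL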
human DGKζ = molecular target: T2, human DGKζ (Homo sapiens, UniProt Q13574); experiment: DGKζ LIPGLO assay (extruded liposome substrate), in vitro DGK inhibition; type: biochemical; details: read-out: DGKz LIPGLO IC50
T2 construct: TVMV protease cleavage site (C); Hexa-His (C); made in house; host or cells: Sf9 insect cells (baculovirus, Bac-to-Bac)
T2 sequence (Q13574 with tags, fused parts or gaps isoform Q13574-4): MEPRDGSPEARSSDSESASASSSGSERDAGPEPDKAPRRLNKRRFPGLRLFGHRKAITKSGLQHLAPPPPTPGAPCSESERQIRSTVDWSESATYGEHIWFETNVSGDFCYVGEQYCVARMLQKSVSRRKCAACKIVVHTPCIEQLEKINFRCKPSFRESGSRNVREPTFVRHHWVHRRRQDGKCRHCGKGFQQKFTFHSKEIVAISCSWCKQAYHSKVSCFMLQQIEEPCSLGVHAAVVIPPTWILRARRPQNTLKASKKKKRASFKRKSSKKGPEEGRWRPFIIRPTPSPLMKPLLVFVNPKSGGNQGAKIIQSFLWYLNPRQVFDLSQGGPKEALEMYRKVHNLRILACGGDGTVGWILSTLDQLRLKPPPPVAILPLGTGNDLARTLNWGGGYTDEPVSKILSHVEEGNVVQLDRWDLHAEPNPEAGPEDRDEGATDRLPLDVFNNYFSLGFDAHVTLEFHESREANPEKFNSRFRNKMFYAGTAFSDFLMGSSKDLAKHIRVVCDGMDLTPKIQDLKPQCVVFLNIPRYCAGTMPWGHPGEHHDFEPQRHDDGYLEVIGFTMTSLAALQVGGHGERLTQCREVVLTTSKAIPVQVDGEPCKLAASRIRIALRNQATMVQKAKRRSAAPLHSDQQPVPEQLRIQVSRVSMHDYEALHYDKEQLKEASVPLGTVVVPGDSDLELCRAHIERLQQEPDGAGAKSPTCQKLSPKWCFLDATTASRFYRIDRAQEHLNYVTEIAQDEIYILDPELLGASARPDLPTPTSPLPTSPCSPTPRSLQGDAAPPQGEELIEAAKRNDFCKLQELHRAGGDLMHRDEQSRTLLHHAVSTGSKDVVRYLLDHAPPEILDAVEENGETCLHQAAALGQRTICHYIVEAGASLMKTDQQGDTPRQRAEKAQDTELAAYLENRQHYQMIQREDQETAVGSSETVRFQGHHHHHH

[1] = Homo sapiens, 24 h, anti-CD3 plus anti-CD28, 24 hours, 3 μM reference compound = 100% activation
[2] = Homo sapiens, T-cell, 20 h, naïve human CD8 T cells, anti-CD3 plus anti-CD28, 3 μM reference compound = 100% activation
[3] = Homo sapiens, 24 h, normalized to 3 μM reference compound with anti-CD3 plus anti-CD28 as 100% activation
[4] = Homo sapiens, T-cell, 20 h, normalized to 3 μM reference compound with anti-CD3 plus anti-CD28 as 100% activation
[5] = normalized to 3 μM reference compound with anti-CD3 plus anti-CD28 as 100% activation

SMILES	IC50 (human DGKα; DGKα liposome (LIPGLO) assay)	IC50 (human DGKζ; DGKζ liposome (LIPGLO) assay)	IC50 (human DGKα; liposome (LIPGLO) assay)	IC50 (human DGKζ; liposome (LIPGLO) assay)	EC50 (Human venous whole blood; [1])	EC50 (naïve human CD8 T cells; [2])	EC50 (Human venous whole blood; [3])	EC50 (naïve human CD8 T cells; [4])	EC50 (Human venous whole blood; [5])	EC50 (naïve human CD8 T cells; [5])
C[C@@H]1CN(c2cc(=O)n(C)c3ccc(C#N)nc23)[C@@H](C)CN1Cc1ccc(C(F)(F)F)nc1Cl [Example 281, 8-[(2S,5R)-4-{[2-chloro-6-(trifluoromethyl)pyridin-3-yl]methyl}-2,5-dimethylpiperazin-1-yl]-5-methyl-6-oxo-5,6-dihydro-1,5-naphthyridine-2-carbonitrile]			2800 nM	4400 nM			2700 nM	560 nM		
CCc1ccccc1C(c1ccc(F)cc1)N1C[C@H](C)N(c2cc(=O)n(C)c3ccc(OC)nc23)C[C@H]1C (single isomer, unassigned) [Example 236]			240000 nM	11000 nM					20000 nM	10000 nM
CCOc1cc(F)ccc1C(c1ccc(F)cc1)N1C[C@H](C)N(c2cc(=O)n(C)c3ccc(C#N)nc23)C[C@H]1C (single isomer, unassigned) [Example 230]			26000 nM	490 nM					5300 nM	370 nM
COC(=O)C1CN(c2c(C#N)c(=O)n(C)c3ccc(Br)nc23)CCN1C(c1ccc(F)cc1)c1ccc(F)cc1 (stereo not drawn) [Example 49, Methyl 1-(bis(4-fluorophenyl)methyl)-4-(6-bromo-3-cyano-1-methyl-2-oxo-1,2-dihydro-1,5-naphthyridin-4-yl)piperazine-2-carboxylate]			25000 nM	8700 nM			6300 nM	490 nM		
C[C@@H]1CN(c2cc(=O)n(C)c3ccc(C#N)nc23)[C@@H](C)CN1C(c1ccc(F)cc1)c1ccon1 (single isomer, unassigned) [Example 707]			150 nM	1700 nM				44 nM	400 nM	
Cc1ccc(C(c2ccc(Cl)cc2)N2CCN(c3c(C#N)c(=O)n(C)c4ccc(C#N)nc34)C[C@H]2C)cc1 (mixture of isomers) [Example 907]	4400 nM	1500 nM			730 nM	70 nM				
C[C@@H]1CN(c2c(Cl)c(=O)n(C)c3ccc(C#N)nc23)[C@@H](C)CN1C(c1ccccc1)c1ccc(F)cc1 (single isomer, unassigned) [Example 218]			9500 nM	> 250000 nM					20000 nM	10000 nM
Cc1ccnc(C(c2ccc(F)cc2)N2C[C@H](C)N(c3cc(=O)n(C)c4ccc(C#N)nc34)C[C@H]2C)c1 (single isomer, unassigned) [Example 455]			1000 nM	2400 nM			740 nM	97 nM		
C[C@@H]1CN(c2cc(=O)n(C)c3ccc(C#N)nc23)[C@@H](C)CN1C(c1ccccc1F)c1ccccc1F [Example 258, 8-[(2S,5R)-4-[bis(2-fluorophenyl)methyl]-2,5-dimethylpiperazin-1-yl]-5-methyl-6-oxo-5,6-dihydro-1,5-naphthyridine-2-carbonitrile]			240 nM	820 nM			1400 nM	56 nM		
C[C@@H]1CN(c2cc(=O)n(C)c3ccc(C#N)nc23)[C@@H](C)CN1Cc1ccccc1F [Example 287, 8-[(2S,5R)-4-[(2-fluorophenyl)methyl]-2,5-dimethylpiperazin-1-yl]-5-methyl-6-oxo-5,6-dihydro-1,5-naphthyridine-2-carbonitrile]			34 nM	1600 nM			7100 nM	12000 nM		
C[C@@H]1CN(c2cc(=O)n(C)c3ccc(C#N)nc23)[C@@H](C)CN1Cc1c(F)ccc(F)c1Cl [Example 266, 8-[(2S,5R)-4-[(2-chloro-3,6-difluorophenyl)methyl]-2,5-dimethylpiperazin-1-yl]-5-methyl-6-oxo-5,6-dihydro-1,5-naphthyridine-2-carbonitrile]			1400 nM	2100 nM			2800 nM	1100 nM		
COC(=O)C1CN(C(c2ccc(F)cc2)c2ccc(F)cc2)CCN1c1c(C#N)c(=O)n(C)c2ccc(C#N)nc12 (stereo not drawn) [Example 114, Methyl 4-(bis(4-fluorophenyl)methyl)-1-(3,6-dicyano-1-methyl-2-oxo-1,2-dihydro-1,5-naphthyridin-4-yl)piperazine-2-carboxylate]			420 nM	1600 nM			490 nM	57 nM		
C[C@@H]1CN(c2cc(=O)n(C)c3ccc(C#N)nc23)[C@@H](C)CN1C(c1ccc(F)cc1)c1cccc2c1OC(F)(F)O2 (stereo partly drawn) [Example 668]			120000 nM	3100 nM			600 nM			35 nM
Cc1ccc(C(c2cccc(F)c2)N2C[C@H](C)N(c3cc(=O)n(C)c4ccc(C#N)nc34)C[C@H]2C)nc1 (single isomer, unassigned) [Example 215]			660 nM	530 nM					2100 nM	33 nM
C[C@@H]1CN(c2cc(=O)n(C)c3ccc(C#N)nc23)[C@@H](C)CN1C(c1ccc(F)cc1)c1cnsc1 (single isomer, unassigned) [Example 715]			360 nM	3900 nM				42 nM	680 nM	
C[C@@H]1CN(c2cc(=O)n(C)c3ccc(C#N)nc23)[C@@H](C)CN1Cc1c(F)cc(F)cc1F [Example 246, 8-[(2S,5R)-2,5-dimethyl-4-[(2,4,6-trifluorophenyl)methyl]piperazin-1-yl]-5-methyl-6-oxo-5,6-dihydro-1,5-naphthyridine-2-carbonitrile]			120 nM	460 nM			550 nM	27 nM		
CC[C@@H]1CN(c2cc(=O)n(C)c3ccc(C#N)nc23)[C@@H](C)CN1C(c1ccc(F)cc1)c1ncccc1F (stereo partly drawn) [Example 1105]			150 nM	440 nM					320 nM	200 nM

More lines, main results first:

IC50 (human DGKα; DGKα liposome (LIPGLO) assay)	IC50 (human DGKζ; DGKζ liposome (LIPGLO) assay)	IC50 (human DGKα; liposome (LIPGLO) assay)	IC50 (human DGKζ; liposome (LIPGLO) assay)	SMILES	EC50 (Human venous whole blood; [1])	EC50 (naïve human CD8 T cells; [2])	EC50 (Human venous whole blood; [3])	EC50 (naïve human CD8 T cells; [4])	EC50 (Human venous whole blood; [5])	EC50 (naïve human CD8 T cells; [5])
6300 nM	390 nM			Cc1ccc(C(c2ccc(C)cc2)N2C[C@H](C)N(c3c(C#N)c(=O)n(C)c4ccc(C#N)nc34)C[C@H]2C)cc1 [Example 806]	690 nM	18 nM				
		390 nM	370 nM	CC[C@@H]1CN(c2cc(=O)n(C)c3ccc(C#N)nc23)[C@@H](C)CN1C(c1ccc(F)cc1)c1ccc(Cl)cc1 (stereo partly drawn) [Example 1100]			120 nM	4.6 nM		
		39 nM	150 nM	C[C@@H]1CN(c2cc(=O)n(C)c3ccc(C#N)nc23)[C@@H](C)CN1C(c1ccc(F)cc1)c1ccc(Cl)cn1 (single isomer, unassigned) [Example 211]			800 nM	29 nM		
		7700 nM	290 nM	C[C@@H]1CN(c2cc(=O)n(C)c3ccc(C#N)nc23)[C@@H](C)CN1C(c1ccc(Cl)cc1)c1cccc2c1OCCO2 (stereo partly drawn) [Example 447, 8-((2S,5R)-4-((4-chlorophenyl)(2,3-dihydrobenzo[b][1,4]dioxin-5-yl)methyl)-2,5-dimethylpiperazin-1-yl)-5-methyl-6-oxo-5,6-dihydro-1,5-naphthyridine-2-carbonitrile]			600 nM	50 nM		
		1700 nM	1100 nM	Cc1ccc(C(c2ccc(Cl)cc2)N2C[C@H](C)N(c3cc(=O)n(C)c4ccc(C#N)nc34)C[C@H]2C)cc1 (stereo partly drawn) [Example 299, 8-[(2S,5R)-4-[(4-chlorophenyl)(4-methylphenyl)methyl]-2,5-dimethylpiperazin-1-yl]-5-methyl-6-oxo-5,6-dihydro-1,5-naphthyridine-2-carbonitrile]			650 nM	17 nM		
		120 nM	1500 nM	C[C@@H]1CN(c2cc(=O)n(C)c3ccc(C#N)nc23)[C@@H](C)CN1C(c1ccc(Cl)cc1)c1ccc(F)cn1 (single isomer, unassigned) [Example 192]					600 nM	56 nM
		1300 nM	220 nM	Cc1cccc(C(c2ccc(F)cc2)N2C[C@H](C)N(c3cc(=O)n(C)c4ccc(C#N)nc34)C[C@H]2C)n1 (single isomer, unassigned) [Example 204]					620 nM	12 nM
		1500 nM	2400 nM	C[C@@H]1CN(c2cc(=O)n(C)c3ccc(C#N)nc23)[C@@H](C)CN1C(c1ccc(Cl)cc1)c1ccc(C#N)cc1 (stereo partly drawn) [Example 298, 8-((2S,5R)-4-((4-chlorophenyl)(4-cyanophenyl)methyl)-2,5-dimethylpiperazin-1-yl)-5-methyl-6-oxo-5,6-dihydro-1,5-naphthyridine-2-carbonitrile]			570 nM	29 nM		
		230 nM	340 nM	Cc1ccnc(C(c2ccc(Cl)cc2)N2C[C@H](C)N(c3cc(=O)n(C)c4ccc(C#N)nc34)C[C@H]2C)c1 (single isomer, unassigned) [Example 362]			720 nM	230 nM		
		1500 nM	57 nM	Cc1cccc(C(c2ccc(F)cc2)N2C[C@H](C)N(c3cc(=O)n(C)c4ccc(C#N)nc34)C[C@H]2C)c1 (single isomer, unassigned) [Example 224]					1000 nM	24 nM
